The record followed here is EP2818471A1, “Nitrogen bicyclic compounds as inhibitors for Scyl1 and Grk5” (Max-Planck-Gesellschaft zur Förderung der Wissenschaften …, priority 2013, dated 2014).

Some results are limits rather than exact numbers.

The term Emax denotes the size of the effect at its maximum, as opposed to the concentration needed.

The test relates to beta-TC6 cells. Put plainly: Insulin HTRF assay, relative activity Ar normalized to sunitinib. The conditions noted are these: Mus musculus, normalized to positive control sunitinib (5 µM = 100%), Table 10. Type of test: cell-based. A digest of the protocol: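 beta-TC6 cells (15k/well) were seeded for 24 or 48 h, washed and exposed to test compound or sunitinib (5 µM f.c.) in induction buffer with 0.5% DMSO for 2, 3 or 4 h at 37°C. Secreted insulin in the supernatant was measured by two-antibody HTRF after 120 min at RT. Ar = (V − 0% control)/(100% control − 0% control) × 100.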
(In general: In TR-FRET formats the signal depends on donor and acceptor labels being close together.)
For `N#Cc1ccc(-c2cnc3cnc(-c4ccc(CO)cc4)cn23)cc1` [compound 338, 4-[6-[4-(hydroxymethyl)phenyl]imidazo[1,2-a]pyrazin-3-yl]benzonitrile], the maximal effect (Emax) is 20 to 50%.
In turn, `CN1CCN(C(=O)c2cccc(-c3cnc4cnc(-c5ccc6c(ccn6C)c5)cn34)c2)CC1` [compound 358, [3-[6-(1-methylindol-5-yl)imidazo[1,2-a]pyrazin-3-yl]phenyl]-(4-methylpiperazin-1-yl)methanone] displayed a maximal effect (Emax) of 20 to 50%.
In the case of `NC(=O)c1ccc(-c2ccc3ncc(-c4ccccc4)n3n2)cc1` [compound 100, 4-(3-phenylimidazo[1,2-b]pyridazin-6-yl)benzamide] it was 20 to 50%; in that of `c1csc(-c2cnc3cnc(-c4ccncc4)cn23)c1` [compound 414, 6-(4-pyridyl)-3-(2-thienyl)imidazo[1,2-a]pyrazine], 20 to 50%; in that of `Nc1cccc(-c2ccc3nnc(-c4cccc(Cl)c4)n3c2)c1` [compound 197, 3-[3-(3-chlorophenyl)-[1,2,4]triazolo[4,3-a]pyridin-6-yl]an iline], 50 to 100%.
For `Clc1ccc(-c2cnc3cnc(-c4ccncc4)cn23)cc1` [compound 347, 3-(4-chlorophenyl)-6-(4-pyridyl)imidazo[1,2-a]pyrazine] the value was 20 to 50%; for `COc1ccc(-c2nnc3ccc(C#Cc4ccncc4)cn23)cc1OC` [compound 190, 3-(3,4-dimethoxyphenyl)-6-[2-(4-pyridyl)ethynyl]-[1,2,4]triazolo[4,3-a]pyridine], 50 to 100%.
`OCc1ccc(-c2ccc3nnc(-c4ccncc4)n3c2)cc1` [compound 179, [4-[3-(4-pyridyl)-[1,2,4]triazolo[4,3-a]pyridin-6-yl]phenyl]methanol] registered a maximal response (Emax) of 20 to 50%.
In the case of `c1ccc(-c2ccc3ncc(-c4ccc5c(c4)OCO5)n3n2)cc1` [compound 101, 3-(1,3-benzodioxol-5-yl)-6-phenyl-imidazo[1,2-b]pyridazine] it was 20 to 50%.
For `CN(C)CCNC(=O)c1cccc(-c2ccc3nnc(-c4ccc5nccnc5c4)n3c2)c1` [compound 242, N-(2-dimethylaminoethyl)-3-(3-quinoxalin-6-yl-[1,2,4]triazolo[4,3-a]pyridin-6-yl)benzamide] the value was at least 100%.
With `c1cncc(-c2cnc3ccc(-c4ccoc4)nn23)c1` [compound 107, 6-(3-furyl)-3-(3-pyridyl)imidazo[1,2-b]pyridazine], the maximum response (Emax) is 20 to 50%.
For `Oc1cccc(-c2nnc3ccc(-c4cccc5ncccc45)cn23)c1` [compound 209, 3-[6-(5-quinolyl)-[1,2,4]triazolo[4,3-a]pyridin-3-yl]phenol] the value was 20 to 50%; for `CN(C)c1ccc(-c2cnc3cnc(-c4ccccc4N(C)C)cn23)cc1` [compound 283, 2-[3-(4-dimethylaminophenyl)imidazo[1,2-a]pyrazin-6-yl]-N,N-dimethyl-aniline], 20 to 50%.
The molecule `COc1ccc(-c2cnc3ccc(N[C@H](CO)C(C)C)nn23)c(OC)c1` [compound 46, (2S)-2-[[3-(2,4-dimethoxyphenyl)imidazo[1,2-b]pyridazin-6-yl]amino]-3-methyl-butan-1-ol] showed an Emax of 20 to 50%.
For `c1ccc(-c2cnc3cnc(-c4ccsc4)cn23)cc1` [compound 296, 3-phenyl-6-(3-thienyl)imidazo[1,2-a]pyrazine] the value was 20 to 50%; for `c1csc(-c2cn3c(-c4ccc5c(c4)OCO5)cnc3cn2)c1` [compound 306, 3-(1,3-benzodioxol-5-yl)-6-(2-thienyl)imidazo[1,2-a]pyrazine], 50 to 100%.
With `Clc1ccc(-c2cnc3cnc(-c4cccs4)cn23)cc1` [compound 349, 3-(4-chlorophenyl)-6-(2-thienyl)imidazo[1,2-a]pyrazine], the maximal effect (Emax) is 20 to 50%.
As to `Nc1ccc(-c2cn3c(NC(=O)c4ccccc4)cnc3cn2)cc1` [compound 269, N-[6-(4-aminophenyl)imidazo[1,2-a]pyrazin-3-yl]benzamide], the maximal response (Emax) lay in the range of 20 to 50%.
Take `OCc1ccc(-c2cn3c(-c4cccc(Cl)c4)cnc3cn2)cc1` [compound 360, [4-[3-(3-chlorophenyl)imidazo[1,2-a]pyrazin-6-yl]phenyl]methanol]: the Emax was in the range of 20 to 50%.
In the case of `c1cncc(-c2cnc3cnc(-c4cc5ccccc5s4)cn23)c1` [compound 316, 6-(benzothiophen-2-yl)-3-(3-pyridyl)imidazo[1,2-a]pyrazine] it was 20 to 50%.
For `COc1ccc(-c2cnc3ccc(NCC4CC4)nn23)cn1` [compound 51, N-(cyclopropylmethyl)-3-(6-methoxy-3-pyridyl)imidazo[1,2-b]pyridazin-6-amine] the value was 10 to 20%; for `OCC#Cc1ccc2nnc(-c3ccc4c(c3)OCO4)n2c1` [compound 173, 3-[3-(1,3-benzodioxol-5-yl)-[1,2,4]triazolo[4,3-a]pyridin-6-yl]prop-2-yn-1-ol], 20 to 50%.
In the case of `COc1ccccc1-c1ccc2ncc(-c3ccc(F)c(Cl)c3)n2n1` [compound 113, 3-(3-chloro-4-fluoro-phenyl)-6-(2-methoxyphenyl)imidazo[1,2-b]pyridazine] it was 20 to 50%; in that of `COc1ccc(-c2ccc3nnc(-c4ccccc4C)n3c2)cc1OC` [compound 223, 6-(3,4-dimethoxyphenyl)-3-(o-tolyl)-[1,2,4]triazolo[4,3-a]pyridine], 50 to 100%; in that of `CSc1ccc(-c2cn3c(-c4cccnc4)cnc3cn2)cc1` [compound 317, 6-(4-methylsulfanylphenyl)-3-(3-pyridyl)imidazo[1,2-a]pyrazine], 20 to 50%.
In the case of `COc1ccc(-c2nnc3ccc(-c4cccc(F)c4)cn23)cc1OC` [compound 187, 3-(3,4-dimethoxyphenyl)-6-(3-fluorophenyl)-[1,2,4]triazolo[4,3-a]pyridine], the maximum response (Emax) was at least 100%.
In the case of `OCc1cccc(-c2cnc3cnc(-c4cccs4)cn23)c1` [compound 379, [3-[6-(2-thienyl)imidazo[1,2-a]pyrazin-3-yl]phenyl]methanol] it was 20 to 50%.
`COc1ccc(-c2cnc3ccc(NCc4cccs4)nn23)c(OC)c1` [compound 6, 3-(2,4-dimethoxyphenyl)-N-(2-thienylmethyl)imidazo[1,2-b]pyridazin-6-amine] gave an Emax of 20 to 50%.
In the case of `C(#Cc1ccccn1)c1ccc2nnc(-c3ccccc3)n2c1` [compound 167, 3-phenyl-6-[2-(2-pyridyl)ethynyl]-[1,2,4]triazolo[4,3-a]pyridine] it was 50 to 100%; in that of `O=C(NC1CC1)c1ccc(-c2cn3c(-c4ccc(O)cc4)cnc3cn2)cc1` [compound 326, N-cyclopropyl-4-[3-(4-hydroxyphenyl)imidazo[1,2-a]pyrazin-6-yl]benzamide], 20 to 50%; in that of `CS(=O)(=O)Nc1cccc(-c2ccc3ncc(-c4ccncc4)n3n2)c1` [compound 105, N-[3-[3-(4-pyridyl)imidazo[1,2-b]pyridazin-6-yl]phenyl]methanesulfonamide], 20 to 50%.
In the case of `CS(=O)(=O)c1ccc(-c2cnc3ccc(Cc4ccccc4)nn23)cc1` [compound 119, 6-benzyl-3-(4-methylsulfonylphenyl)imidazo[1,2-b]pyridazine] it was 10 to 20%; in that of `N#Cc1ccc(-c2cnc3cnc(-c4cccs4)cn23)cc1` [compound 339, 4-[6-(2-thienyl)imidazo[1,2-a]pyrazin-3-yl]benzonitrile], 20 to 50%; in that of `COc1cccc(-c2ccc3nnc(-c4cscn4)n3c2)c1` [compound 234, 4-[6-(3-methoxyphenyl)-[1,2,4]triazolo[4,3-a]pyridin-3-yl]thiazole], 50 to 100%.
In the case of `CC(=O)c1cccc(-c2cnc3cnc(-c4cccnc4)cn23)c1` [compound 409, 1-[3-[6-(3-pyridyl)imidazo[1,2-a]pyrazin-3-yl]phenyl]ethanone], the Emax was in the range of 20 to 50%.
For `COc1ccccc1-c1cn2c(NC(=O)c3ccccc3)cnc2cn1` [compound 267, N-[6-(2-methoxyphenyl)imidazo[1,2-a]pyrazin-3-yl]benzamide], the Emax lay in the range of 20 to 50%.
Turning to `OCc1ccc(-c2cn3c(-c4cccc(F)c4)cnc3cn2)cc1` [compound 389, [4-[3-(3-fluorophenyl)imidazo[1,2-a]pyrazin-6-yl]phenyl]methanol], the Emax fell in the range of 20 to 50%.
`COc1ccc(-c2nnc3ccc(-c4ccc(S(C)(=O)=O)cc4)cn23)cc1OC` [compound 186, 3-(3,4-dimethoxyphenyl)-6-(4-methylsulfonylphenyl)-[1,2,4]triazolo[4,3-a]pyridine] displayed a maximal effect (Emax) of 10 to 20%.
As for `FC(F)(F)Oc1cccc(-c2ccc3nnc(-c4ccncc4)n3c2)c1` [compound 178, 3-(4-pyridyl)-6-[3-(trifluoromethoxy)phenyl]-[1,2,4]triazolo[4,3-a]pyridine], the Emax was 20 to 50%.
For `Clc1cccc(-c2cn3c(-c4ccc5c(c4)OCO5)cnc3cn2)c1` [compound 303, 3-(1,3-benzodioxol-5-yl)-6-(3-chlorophenyl)imidazo[1,2-a]pyrazine] the value was 50 to 100%; for `Cn1ccc2cc(-c3cnc4cnc(-c5cccc(C(=O)NCCO)c5)cn34)ccc21` [compound 399, N-(2-hydroxyethyl)-3-[3-(1-methylindol-5-yl)imidazo[1,2-a]pyrazin-6-yl]benzamide], 20 to 50%; for `OC1CCC(Nc2ccc3ncc(Br)n3n2)CC1` (centres unmarked) [compound 32, 4-[(3-bromoimidazo[1,2-b]pyridazin-6-yl)amino]cyclohexanol], 10 to 20%.
For `Oc1cccc(-c2cnc3ccc(-c4cccc5ncccc45)nn23)c1` [compound 128, 3-[6-(5-quinolyl)imidazo[1,2-b]pyridazin-3-yl]phenol] the value was 10 to 20%; for `FC(F)(F)Oc1cccc(-c2nnc3ccc(-c4cccs4)cn23)c1` [compound 195, 6-(2-thienyl)-3-[3-(trifluoromethoxy)phenyl]-[1,2,4]triazolo[4,3-a]pyridine], 50 to 100%.
